Tests used:
[1] = PO JVC rat PK study at 10 mg/kg; type: in vivo; settings: male Sprague Dawley rats
Procedure: Compound 3 was orally dosed at 10 mg/kg to a group of 3 individually housed male Sprague Dawley rats that were fasted overnight and fed 4 h post-dose, the rats were fitted with JVCs. Dosing was performed with 5 mL/kg dosing volumes with 5% DMSO 95% water used as a dosing vehicle. Serial blood (150 μL) samples were taken from each animal at each timepoint (0.25 h, 0.5 h, 1 h, 2 h, 4 h, 6 h, 8 h, and 24 h) into heparinised Eppendorf tubes (containing 5 μL heparin) on ice containing an equal quantity of water. Two 100 μL aliquots were then placed in duplicate 96 well plates on dry ice. Samples were stored in the freezer at −20° C. until bioanalysis.
Samples were defrosted and acetonitrile (containing internal standard) was used to precipitate the proteins. All the samples were mixed, centrifuged and the supernatants analysed by LC-MS-MS according to the following procedures: • 1. 20 μL plasma was transferred to a v-bottom 96-well plate. • 2. 80 μL acetonitrile (ACN) containing IS was added to each well. • 3. The plate was sealed and gently mixed for approximately 30 s. • 4. Plates were centrifuged for 10 min at 3500 rpm. • 5. 50 μL supernatant was transferred to a fresh v-bottom 96-well plate containing 100 μL MilliQ water.
Plates were thermo-sealed and stored at 4° C. until analysis. The resulting PK parameters are shown below in Table 1.

[2] = In vitro brain homogenate stability, rat; type: in vitro ADME
Procedure: (§1) Fresh rodents brains were snap frozen immediately after collection and the assay performed on the same day. Brains were pre-incubated at 37° C. before being spiked with test compound at 1 μM. Samples were collected across 6 time points (0, 10, 20, 30, 45 and 60 minutes) and crashed in cold acetonitrile containing an internal standard (Leucine Enkephalin) and kept on ice until all samples had been collected. The samples were then shaken and centrifuged. 100 μL of supernatant was transferred to a plate containing 50 μL of MilliQ water and mixed. These plates were analyzed by LC-MS/MS over the 6 time points, where the percentage of test compound remaining was calculated using the peak area of the initial timepoint (T=0 minutes) as 100%. The natural log of the percentage remaining was then calculated. The natural log of the percentage remaining versus time (minutes) was plotted on a graph and the gradient of this graph was used to calculate the elimination rate constant (K), The half-life (t1/2) of test compound was calculated using the natural log of 2 divided by the elimination rate constant. The percentage of Compound 2 formed is reported below in Tables 4-6. FIGS. 9A-9F show results of the brain homogenate stability conducted with representative compounds of the Examples.

[3] = In vitro brain homogenate stability, mouse; type: in vitro ADME
Procedure: as §1

[4] = one hour incubation, increasing formation of Compound 2

Substance: 2-(5Z,8Z,11Z,14Z)-icosa-5,8,11,14-tetraenamidoethyl (trimethylammonio) ethylphosphate [Compound 3]
- AUC0-inf ([1]; 10 mg/kg PO): 2426.6 ng·h/mL
- AUC0-t ([1]; 10 mg/kg PO): 2348.5 ng·h/mL
- Cmax ([1]; 10 mg/kg PO): 372 ng/mL
- Tmax ([1]; 10 mg/kg PO): 2.5 h
- Bioavailability ([1]; 10 mg/kg PO vs 3 mg/kg IV): 28 % F
- Rat t1/2 ([2]; 37° C., test compound at 1 μM): 0.933 h
- Clearance in brain homogenate stability study (in words) [2, 4]: demonstrated a level of clearance
- Mouse t1/2 ([3]; 37° C., test compound at 1 μM): 1.67 h
- Clearance in brain homogenate stability study (in words) [3, 4]: demonstrated a level of clearance
